Assay results from patent US20140206763A1, “PHENYLBUTYRATE FOR TREATMENT OF SPORADIC INCLUSION-BODY MYOSITIS AND DISORDERS RELATING TO AUTOPHAGY IMPAIRMENT OR AMYLOID BETA 42 ACCUMULATION” (UNIVERSITY OF SOUTHERN CALIFORNIA, priority 2013, published 2014).
“Also recorded” adds a separate entry of the source.

Assays:
p62 = p62 immunoblot with densitometric analysis in CHMFs; type: cell-based, human; settings: for increase of p62: exposure to inhibitor alone, vs control CHMFs
Procedure: (§1) Primary cultures of normal human muscle were established as routinely performed in our laboratory (Askanas and Engel, 1992) from archived satellite cells of portions of diagnostic muscle biopsies from patients who, after all tests were performed, were considered free of muscle disease. Each experiment was performed on 3-9 different culture sets, each established from satellite cells derived from a different muscle biopsy. 10-15 days after myoblast fusion, the well-differentiated myotubes were, as previously described (Nogalska et al., 2012; Nogalska et al., 2010b), exposed for 24 hours to either: a) chloroquine (Chl), a lysosomotropic agent raising lysosomal pH and inhibiting activities of cathepsins (Shacka et al., 2006) (50 μM, Sigma-Aldrich, St. Louis, Mo.); or b) bafilomycin Al (Baf), an inhibitor of lysosomal V-ATPase causing an increase in lysosomal pH and inhibiting activities of cathepsins (Shacka et al., 2006) (25 nM, Sigma-Aldrich). CHMFs were also treated with NaPB (Tocris/R&D Systems, Minneapolis, Minn.) in doses ranging from 1-15 mM, used either alone or together with chloroquine or bafilomycin.
(§2) CHMFs were harvested in RIPA buffer and immunoblotted, as previously detailed (D'Agostino et al., 2011; Nogalska et al., 2012; Nogalska et al., 2010b) using antibodies against LC3 (1:500, Novus Biologicals, Littleton, Colo.), p62 (1:100, A-6, Santa Cruz Biotechnology) or NBR1 (1:700). Aβ42 oligomers were studied using 6E10 antibody (1:500, Covance, Princeton, N.J.), as described (Nogalska et al., 2010a). Blots were developed using anti-rabbit or anti-mouse WesternBreeze chemiluminescence kits (Invitrogen). Protein loading was evaluated by the actin band (1:600, C-2, Santa Cruz Biotechnology). Quantification of the immunoreactivity was performed by densitometric analysis using NIH Image J 1.310 software.

Cathepsin B = assay: Measurement of Cathepsin B activity in CHMFs; type: cell-based, human; settings: for reduction of Cathepsin B activity: exposure to inhibitor alone, vs control CHMFs
Procedure: as §1
Cathepsin B [EC 3.4.22.1] activity was measured as described (Nogalska et al., 2010b). Samples were measured in duplicate. All samples were incubated at 37° C. for 45 min, and the fluorescence emission excited at 355 nm was recorded at 444 nm. Activity of cathepsin B was expressed as arbitrary fluorescence units.

GFP-LC3 = GFP-LC3 puncta count (autophagosome accumulation) in CHMFs; type: cell-based, human
Procedure: To morphologically evaluate accumulation of autophagosomes, three different tissue-culture sets (experiments) were transduced with PremoAutophagy Sensor GFP-LC3 (Invitrogen, Carlsbad, Calif.) according to the manufacturer's instructions. 24 hours later, CHMFs were treated with chloroquine as described above. Counting of the GFP-LC3 puncta in the muscle fibers was performed on all three different culture experiments. Each experiment involved the same three different conditions: control, chloroquine-exposed, and chloroquine-exposed-plus-NaPB-treated cultures. In each experiment, each condition was composed of two cultures. For the analysis, eight random fields per condition of each culture were photographed (magnification ×40) in each of the three experiments. Overall, in each of the three conditions GFP-LC3 puncta were evaluated in more than 80 fibers, independently by two investigators (AN and CD). In addition, GFP-LC3 transduced CHMFs were also processed for immunofluorescence of NBR1 (1:100, 4BR, Santa Cruz Biotechnology, Santa Cruz, Calif.).

Aβ42 oligomers = Aβ42 oligomers immunoblot (6E10 antibody) in CHMFs; type: cell-based, human
Procedure: Primary cultures of normal human muscle were established as routinely performed in our laboratory (Askanas and Engel, 1992) from archived satellite cells of portions of diagnostic muscle biopsies from patients who, after all tests were performed, were considered free of muscle disease. Each experiment was performed on 3-9 different culture sets, each established from satellite cells derived from a different muscle biopsy. […]
as §2, with “Aβ42 oligomers were studied using 6E10 antibody (1:500, Covance, Princeton, N.J.), as described (Nogalska et al., 2010a). Blots were developed using anti-rabbit or anti-mouse WesternBreeze chemiluminescence kits (Invitrogen).” left out

Cathepsin D = assay: Measurement of Cathepsin D activity in CHMF homogenates; type: cell-based, human; settings: for reduction of Cathepsin D activity: exposure to inhibitor alone, vs control CHMFs
Procedure: as §1
Cathepsin D [EC 3.4.23.5] activity was measured utilizing a Cathepsin D Assay Kit (Sigma, St. Louis, Mo.) according to manufacturer's instructions and as previously detailed (Nogalska et al., 2010b). Homogenates were prepared in phosphate buffer-saline with addition of CHAPS (0.05%) (Sigma-Aldrich). All samples were measured in duplicate. The fluorescence emission excited at 355 nm was recorded at 405 nm every 2 minutes. Activity of cathepsin D measured in the linear phase of the reaction was expressed as fluorescence-intensity per minute.

control CHMFs = assay: Morphology and muscle-fiber viability of control CHMFs; type: cell-based, human; settings: 15 mM NaPB
Procedure: as §1

[1] = cited from earlier work
Aβ42 = Aβ42 ELISA in CHMFs; type: cell-based, human
Procedure: as §1
To quantify endogenous Aβ42 content in cultured human muscle fibers, we used the “Human β-Amyloid (1-42) ELISA kit, WAKO, High Sensitive” (WAKO Chemicals USA, Inc., Richmond, Va.) as described (Nogalska et al., 2012). Homogenates were freshly prepared in RIPA buffer containing a protease inhibitor cocktail (Roche Diagnostic, Mannheim, Germany). 100 μg of protein per well from each sample were diluted in a Standard Diluent Buffer provided in the kit, added to the assay plates in duplicate, and incubated overnight at 4° C. The ELISA was performed the next day, according to manufacturer's protocol. The absorbance was read at 450 nm.

[2] = system: cultured human muscle fibers (CHMFs); assay: Vacuolization of cultured human muscle fibers by phase-contrast microscopy; type: cell-based; settings: for vacuolization of chloroquine-exposed CHMFs: chloroquine 50 μM 24 hours + NaPB 15 mM, vs chloroquine alone; for vacuolization of CHMFs after exposure to lysosomal inhibitor alone: exposure alone 24 hours, vs control CHMFs
Procedure: as §1

NBR1 = NBR1 immunoblot with densitometric analysis in CHMFs; type: cell-based, human; settings: for increase of NBR1 levels: exposure to inhibitor alone, vs control CHMFs
Procedure: as §1, §2

γ-secretase = assay: Measurement of γ-secretase activity in CHMFs; type: cell-based, human
Procedure: as §1
γ-secretase activity was measured as previously described (Nogalska et al., 2012). Briefly, cultures were homogenized in PBS buffer with addition of 0.05% CHAPS. The supernatants containing 50 μg of protein were added to the reaction mixture containing assay buffer (50 mM TRIS-HCl pH 6.8, 2 mM EDTA, 0.25% CHAPS). The reaction was initiated by adding a specific synthetic substrate NMA-Amyloid β-Protein (aa708-715)-Lys-(DNP) Arg-Arg-Arg-amide trifluoroacetate salt (10 μM) (Sigma-Aldrich). After overnight incubation at 37° C., the samples were centrifuged at 16,000×g for 15 minutes, supernatants were transferred to a 96-well plate and the fluorescence emission excited at 390 nm was recorded at 444 nm. Activity of γ-secretase was expressed as arbitrary fluorescence units.

LC3-II = LC3-II immunoblot with densitometric analysis in CHMFs; type: cell-based, human; settings: for increase of LC3-II: exposure to inhibitor alone, vs control CHMFs
Procedure: as §1, §2

[3] = patients with urea cycle-disorders, compared with NaPB; cited from earlier work
CHMFs = assay: Treatment of CHMFs with HDAC inhibitor compared with PB; type: cell-based, human; settings: data not shown
[4] = bafilomycin+NaPB (15 mM) vs bafilomycin alone
[5] = chloroquine+NaPB (15 mM) vs chloroquine alone
[6] = bafilomycin+NaPB (15 mM) vs bafilomycin without NaPB
[7] = autophagy-impaired cultures, not significantly worse than controls
[8] = chloroquine alone vs control CHMFs

In the case of `O=C([O-])CCCc1ccccc1.[Na+]` [NaPB, Sodium 4-phenylbutanoate], the “decrease of p62” value (p62; [4]) was 83%, the “decrease of p62” value (p62; [5]) was 74% and the “effect on p62 at lower dose” value (p62; chloroquine-exposed CHMFs, NaPB 5 mM) was “significantly decreased p62; also recorded: statistically significantly decreased”. For the same molecule, the “effect on protein level of p62” value (p62; control CHMFs, NaPB 1-15 mM) was “did not exert any effect”, the “effect on Cathepsin B activity in ER-stress model” value (Cathepsin B; ER-stress-induced CHMFs, data not shown) was “mitigates the reduction of Cathepsin B activity” and the “higher activity of Cathepsin B” value (Cathepsin B; [6]) was 40%. The “increase of Cathepsin B activity” value (Cathepsin B; [5]) was 70%, the “effect on Cathepsin B activity” value (Cathepsin B; control CHMFs, NaPB 1-15 mM) was “did not exert any effect” and the “decrease of number of GFP-LC3 foci” value (GFP-LC3; chloroquine+NaPB (15 mM) vs chloroquine-only exposed cultures) was 53%. For the same molecule, the “lower amount of Aβ42 oligomers” value (Aβ42 oligomers; [4]) was 60%, the “decrease of Aβ42 oligomers” value (Aβ42 oligomers; chloroquine+NaPB (15 mM) vs autophagy-impaired NaPB-non-treated CHMFs) was 65% and the “Cathepsin D value after NaPB treatment compared with controls (ANOVA)” value (Cathepsin D; [7]) was “fully corrected”. The “higher activity of Cathepsin D” value (Cathepsin D; [6]) was 15%, the “increase of Cathepsin D activity” value (Cathepsin D; [5]) was 40% and the “effect on Cathepsin D activity” value (Cathepsin D; control CHMFs, NaPB 1-15 mM) was “did not exert any effect”. For the same molecule, the “adverse morphologic abnormalities and muscle-fiber viability” value (control CHMFs) was “did not produce either adverse morphologic abnormalities or affect muscle-fiber viability”, the “tolerability, daily and long-term” value ([1]; infants, children and adults with urea-cycle disorders) was “usually well tolerated” and the “tolerability in preliminary trials” value ([1]; patients with amyotrophic lateral sclerosis (ALS)) was “well-tolerated”. For the same molecule, the “Aβ42 by ELISA value after NaPB treatment compared with controls (ANOVA)” value (Aβ42; [7]) was “fully corrected”, the “lower amount of Aβ42 by ELISA” value (Aβ42; bafilomycin+NaPB (15 mM) vs bafilomycin alone, 2 culture sets, statistical significance not reached) was 28% and the “decrease of Aβ42 by ELISA” value (Aβ42; [5]) was 53%. The “vacuolization of bafilomycin-exposed CHMFs” value ([2]; bafilomycin 25 nM 24 hours + NaPB 15 mM, vs bafilomycin alone) was “nearly completely prevented their vacuolization; also recorded: morphologically prominent decrease of their vacuolization”, the “vacuolization of chloroquine-exposed CHMFs” value [2] was “virtually completely prevented their vacuolization” and the “vacuolization of chloroquine-exposed CHMFs” value ([2]; listed as PB) was “prominently eliminating their vacuolization”. For the same molecule, the “decrease of NBR1” value (NBR1; [4]) was 34%, the “reduction of increased NBR1” value (NBR1; [5]) was 63% and the “effect on protein level of NBR1” value (NBR1; control CHMFs, NaPB 1-15 mM) was “did not exert any effect”. The “γ-secretase activity value after NaPB treatment compared with controls (ANOVA)” value (γ-secretase; [7]) was “fully corrected”, the “decrease of γ-secretase activity” value (γ-secretase; chloroquine+NaPB (15 mM) vs untreated autophagy-impaired CHMFs) was 56% and the “decrease of LC3-II” value (LC3-II; [4]) was 36%. The “decrease of LC3-II” value (LC3-II; [5]) was 54% and the “effect on protein level of LC3-II” value (LC3-II; control CHMFs, NaPB 1-15 mM) was “did not exert any effect”.
For `O=C(CCCc1ccccc1)OCC(COC(=O)CCCc1ccccc1)OC(=O)CCCc1ccccc1` [GPB, 1,2,3-Propanetriyl tris(4-phenylbutanoate)], the lowering blood ammonia [3] is given as “as effective as NaPB”.
For `CO/C1=C\C(C)=C\[C@@H](C)[C@@H](O)[C@@H](C)C/C(C)=C/C=C/[C@H](OC)[C@@H]([C@@H](C)[C@@H](O)[C@H](C)[C@@]2(O)C[C@@H](O)[C@H](C)[C@@H](C(C)C)O2)OC1=O` [bafilomycin, bafilomycin Al], the “increase of p62” value (p62) was 18 fold, the “reduction of Cathepsin B activity” value (Cathepsin B) was 85% and the “reduction of Cathepsin D activity” value (Cathepsin D) was 25%. The “Aβ42 by ELISA after inhibitor exposure” value (Aβ42; Baf-exposed CHMFs, two separate experiments) was “elevated”, the “vacuolization of CHMFs after exposure to lysosomal inhibitor alone” value [2] was “induced pronounced vacuolization” and the “increase of NBR1 levels” value (NBR1) was 9 fold. The “increase of LC3-II” value (LC3-II) was 17 fold.
With `CCN(CC)CCCC(C)Nc1ccnc2cc(Cl)ccc12` (centres unmarked) [chloroquine] the “increase of p62” value (p62) was 9 fold, the “reduction of Cathepsin B activity” value (Cathepsin B) was 60% and the “increase of number of GFP-LC3 foci/puncta per muscle fiber” value (GFP-LC3; exposure alone, vs control CHMFs) was 8 fold. For the same molecule, the “reduction of Cathepsin D activity” value (Cathepsin D) was 40%, the “increase of Aβ42 by ELISA” value (Aβ42; [8]) was 60% and the “vacuolization of CHMFs after exposure to lysosomal inhibitor alone” value [2] was “induced pronounced vacuolization”. For the same molecule, the “increase of NBR1 levels” value (NBR1) was 5 fold, the “γ-secretase activity after inhibitor exposure” value (γ-secretase; [8]) was “significantly increased γ-secretase activity” and the “increase of LC3-II” value (LC3-II) was 9 fold.
With `CC(/C=C/C(=O)NO)=C\[C@@H](C)C(=O)c1ccc(N(C)C)cc1` [trichostatinA] the “ameliorative effect compared with PB” value (CHMFs) was “did not have an effect similar to that achieved with PB”.
